As usually defined, the EC50 is the midpoint of the concentration-response curve.

We go through 10 compounds from US20260116910A1, “POLYCYCLIC COMPOUNDS AND METHODS THEREOF” (HEPAITECH (BEIJING) BIOPHARMA TECHNOLOGY CO., LTD., priority 2021, published 2026).

The target in one assay is MRGPRX4 (Homo sapiens, UniProt Q96LA9). As to the kind of experiment: MRGPRX4 activation, Fluo-8 Ca2+ FLIPR assay in HEK293T cells stably expressing MRGPRX4. In kind it is cell-based. Conditions: for EC50: MRGPRX4 activation, Ca2+ fluorescence, no activation in tested range reported as III, read-out: Activity (EC50 μM). The method, boiled down:
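Cells seeded overnight to >95% confluence, loaded 40-60 min at room temperature with 2 μM Fluo-8 AM, then kept in HHBS. Baseline read 30 s, compound added, signal followed 150 s more.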

Another assay deals with T1, human FXR (NR1H4) (Homo sapiens, UniProt Q96RI1).
T1 sequence (Q96RI1 1-476 isoform Q96RI1-1): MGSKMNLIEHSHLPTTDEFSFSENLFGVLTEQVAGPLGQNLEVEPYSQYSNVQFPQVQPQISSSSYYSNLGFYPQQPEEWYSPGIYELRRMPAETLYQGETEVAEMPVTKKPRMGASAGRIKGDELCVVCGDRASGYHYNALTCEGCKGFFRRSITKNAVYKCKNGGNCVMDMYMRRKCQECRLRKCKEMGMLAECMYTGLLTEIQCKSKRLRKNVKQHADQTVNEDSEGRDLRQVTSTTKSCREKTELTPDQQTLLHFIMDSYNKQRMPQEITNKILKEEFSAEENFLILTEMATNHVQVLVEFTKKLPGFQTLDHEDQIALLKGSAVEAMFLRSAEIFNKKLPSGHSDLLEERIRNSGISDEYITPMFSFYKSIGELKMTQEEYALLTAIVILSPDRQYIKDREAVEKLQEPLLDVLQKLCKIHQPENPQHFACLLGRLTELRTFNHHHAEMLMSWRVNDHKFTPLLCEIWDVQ
As to the kind of experiment: Human FXR (NR1H4) agonist assessment, FXRE-NanoLuc reporter in HEK293T cells. In kind it is cell-based. Particulars: FXR activation, HEK293T FXRE-NanoLuc reporter, 24 hr; for EC50: read-out: EC50. The method, boiled down: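 HEK293T cells stably expressing human FXR with an FXRE-NanoLuc reporter were treated with compounds for 24 hr at 37 °C, with 0.01% DMSO as negative control. Medium was read for luminescence after 5 min with coelenterazine. EC50 was fitted by sigmoid to concentration-response data.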

Structures are written as SMILES.

Sequence of MRGPRX4 (Q96LA9 whole entry): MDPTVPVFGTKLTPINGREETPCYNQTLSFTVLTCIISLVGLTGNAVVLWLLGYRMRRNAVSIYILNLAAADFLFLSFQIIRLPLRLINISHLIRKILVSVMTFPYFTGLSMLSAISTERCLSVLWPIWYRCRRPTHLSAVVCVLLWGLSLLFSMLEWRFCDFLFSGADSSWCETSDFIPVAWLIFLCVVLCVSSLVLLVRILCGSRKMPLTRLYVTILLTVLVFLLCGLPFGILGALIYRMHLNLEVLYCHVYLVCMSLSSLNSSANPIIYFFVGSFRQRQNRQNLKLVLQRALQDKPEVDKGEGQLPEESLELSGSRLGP

Turning to `CC[C@H]1[C@@H](O)[C@@H]2[C@H](CC[C@]3(C)[C@@H]([C@H](C)CCC(=O)NS(=O)(=O)C(C)(C)C)CC[C@@H]23)[C@@]2(C)CCCC[C@@H]12` [4-1], the “MRGPRX4 activation, fluorescence change (dF/F0), Average” value (from here on “MRGPRX4 activation, fluorescence change”) on MRGPRX4 (Conc. (Log[M]) −4) is 0.057; on MRGPRX4 (Conc. (Log[M]) −4.5), 0.035; on MRGPRX4 (Conc. (Log[M]) −5) it was −0.037; on MRGPRX4 (Conc. (Log[M]) −5.5) it was −0.013; on MRGPRX4 (Conc. (Log[M]) −6), 0.002; at MRGPRX4 (Conc. (Log[M]) −7), 0.009. For the same compound, the “MRGPRX4 activation, fluorescence change” value is listed as 0.004 at MRGPRX4 (Conc. (Log[M]) −8) and 0.005 at MRGPRX4 (Conc. (Log[M]) −9). Also, the results for the EC50 at MRGPRX4 and at human FXR (NR1H4) were over 100 µM and under 1000 nM, respectively. Moreover, the “Efficacy (maximum measured induction of NanoLuc, normalized to CDCA set as 100%)” value at human FXR (NR1H4) is “B (300%<efficacy <=400%)”.
`CC[C@H]1[C@@H](O)[C@@H]2[C@H](CC[C@]3(C)[C@@H]([C@H](C)CCC(=O)NS(=O)(=O)CC)CC[C@@H]23)[C@@]2(C)CCCC[C@@H]12` [4-2]: the “MRGPRX4 activation, fluorescence change” value on MRGPRX4 (Conc. (Log[M]) −4) was 0.113; at MRGPRX4 (Conc. (Log[M]) −4.5) it was −0.013; at MRGPRX4 (Conc. (Log[M]) −5), −0.006; on MRGPRX4 (Conc. (Log[M]) −5.5), 0.015; at MRGPRX4 (Conc. (Log[M]) −6), −0.006; at MRGPRX4 (Conc. (Log[M]) −7), 0.009. The figures for the “MRGPRX4 activation, fluorescence change” value on MRGPRX4 (Conc. (Log[M]) −8) and at MRGPRX4 (Conc. (Log[M]) −9) were 0.009 and 0.002, respectively. The concentration giving a half-maximal response (EC50) on MRGPRX4 was over 100 µM; at human FXR (NR1H4) it was under 1000 nM. In addition, at human FXR (NR1H4), the “Efficacy (maximum measured induction of NanoLuc, normalized to CDCA set as 100%)” value is reported as “B (300%<efficacy <=400%)”.
`CC[C@H]1[C@@H](O)[C@@H]2[C@H](CC[C@]3(C)[C@@H]([C@H](C)CC(=O)NS(=O)(=O)C(C)(C)C)CC[C@@H]23)[C@@]2(C)CCCC[C@@H]12` [4-3]: the EC50 at MRGPRX4 is over 100 µM. At human FXR (NR1H4), the “Efficacy (maximum measured induction of NanoLuc, normalized to CDCA set as 100%)” value is reported as “B (300%<efficacy <=400%)” and the 50% effective concentration (EC50) was 1000 to 10000 nM.
The matching figures for `CC[C@H]1[C@@H](O)[C@@H]2[C@H](CC[C@]3(C)[C@@H]([C@H](C)CCNC(=O)NS(=O)(=O)c4ccc(C(C)(C)C)cc4)CC[C@@H]23)[C@@]2(C)CCCC[C@@H]12` [5-1]: over 100 µM, “B (300%<efficacy <=400%)” and under 1000 nM.
For `CC[C@H]1[C@@H](O)[C@@H]2[C@H](CC[C@]3(C)[C@@H]([C@H](C)CCNC(=O)NS(=O)(=O)c4ccc(C(C)(C)CO)cc4)CC[C@@H]23)[C@@]2(C)CCCC[C@@H]12` [5-2], the “MRGPRX4 activation, fluorescence change” value on MRGPRX4 (Conc. (Log[M]) −4) came to 0.087; at MRGPRX4 (Conc. (Log[M]) −4.5), 0.030; at MRGPRX4 (Conc. (Log[M]) −5), 0.023; on MRGPRX4 (Conc. (Log[M]) −5.5), 0.027; on MRGPRX4 (Conc. (Log[M]) −6) it was 0.023; on MRGPRX4 (Conc. (Log[M]) −7), 0.020. Moreover, the EC50 at MRGPRX4 was over 100 µM; at human FXR (NR1H4), under 1000 nM. For the same compound, on human FXR (NR1H4), the “Efficacy (maximum measured induction of NanoLuc, normalized to CDCA set as 100%)” value was “A (efficacy >400%)”.
Take `CC[C@H]1[C@@H](O)[C@@H]2[C@H](CC[C@]3(C)[C@@H]([C@H](C)CCNC(=O)NS(=O)(=O)C4CCCCC4)CC[C@@H]23)[C@@]2(C)CCCC[C@@H]12` [5-3]: the “MRGPRX4 activation, fluorescence change” value is 0.297 at MRGPRX4 (Conc. (Log[M]) −4); 0.031 on MRGPRX4 (Conc. (Log[M]) −4.5); 0.001 at MRGPRX4 (Conc. (Log[M]) −5); −0.012 at MRGPRX4 (Conc. (Log[M]) −5.5); −0.033 on MRGPRX4 (Conc. (Log[M]) −6); −0.011 on MRGPRX4 (Conc. (Log[M]) −7). Moreover, the “MRGPRX4 activation, fluorescence change” value was −0.012 at MRGPRX4 (Conc. (Log[M]) −8) and 0.002 on MRGPRX4 (Conc. (Log[M]) −9). Besides, the EC50 is over 100 µM at MRGPRX4 and 1000 to 10000 nM on human FXR (NR1H4). Besides, the “Efficacy (maximum measured induction of NanoLuc, normalized to CDCA set as 100%)” value on human FXR (NR1H4) was “C (100%<efficacy <=300%)”.
Consider `CC[C@H]1[C@@H](O)[C@@H]2[C@H](CC[C@]3(C)[C@@H]([C@H](C)CCNC(=O)NS(=O)(=O)c4ccc5c(c4)CCN5C(C)=O)CC[C@@H]23)[C@@]2(C)CCCC[C@@H]12` [5-4], for which the “MRGPRX4 activation, fluorescence change” value on MRGPRX4 (Conc. (Log[M]) −4) came out at 0.097; at MRGPRX4 (Conc. (Log[M]) −4.5) it was 0.017; at MRGPRX4 (Conc. (Log[M]) −5), 0.020; at MRGPRX4 (Conc. (Log[M]) −5.5), 0.020; on MRGPRX4 (Conc. (Log[M]) −6), 0.013; at MRGPRX4 (Conc. (Log[M]) −7) it was 0.017. Also, the concentration for a half-maximal effect (EC50) is over 100 µM at MRGPRX4 and under 1000 nM on human FXR (NR1H4). Besides, at human FXR (NR1H4), the “Efficacy (maximum measured induction of NanoLuc, normalized to CDCA set as 100%)” value was “B (300%<efficacy <=400%)”.
On to `CC[C@H]1[C@@H](O)[C@@H]2[C@H](CC[C@]3(C)[C@@H]([C@H](C)CCNC(=O)NS(=O)(=O)C4CCC(C)(C)CC4)CC[C@@H]23)[C@@]2(C)CCCC[C@@H]12` [5-5], for which the “MRGPRX4 activation, fluorescence change” value on MRGPRX4 (Conc. (Log[M]) −4) is 0.083; on MRGPRX4 (Conc. (Log[M]) −4.5), 0.033; at MRGPRX4 (Conc. (Log[M]) −5), 0.017; on MRGPRX4 (Conc. (Log[M]) −5.5) it was 0.020; on MRGPRX4 (Conc. (Log[M]) −6), 0.027; on MRGPRX4 (Conc. (Log[M]) −7), 0.060. For the same compound, the values for the EC50 on MRGPRX4 and on human FXR (NR1H4) were over 100 µM and under 1000 nM, respectively. Besides, the “Efficacy (maximum measured induction of NanoLuc, normalized to CDCA set as 100%)” value on human FXR (NR1H4) was “C (100%<efficacy <=300%)”.
As to `CC[C@H]1[C@@H](O)[C@@H]2[C@H](CC[C@]3(C)[C@@H]([C@H](C)CCNC(=O)NS(=O)(=O)c4ccc5c(c4)OCO5)CC[C@@H]23)[C@@]2(C)CCCC[C@@H]12` [5-6], the “MRGPRX4 activation, fluorescence change” value on MRGPRX4 (Conc. (Log[M]) −4) was 0.077; on MRGPRX4 (Conc. (Log[M]) −4.5), 0.033; on MRGPRX4 (Conc. (Log[M]) −5), 0.010; on MRGPRX4 (Conc. (Log[M]) −5.5), 0.017; at MRGPRX4 (Conc. (Log[M]) −6), 0.013; on MRGPRX4 (Conc. (Log[M]) −7), 0.010. The EC50 at MRGPRX4 was over 100 µM; at human FXR (NR1H4), under 1000 nM. Moreover, the “Efficacy (maximum measured induction of NanoLuc, normalized to CDCA set as 100%)” value at human FXR (NR1H4) was “C (100%<efficacy <=300%)”.
For `CC[C@H]1[C@@H](O)[C@@H]2[C@H](CC[C@]3(C)[C@@H]([C@H](C)CCNC(=O)NS(=O)(=O)c4cccc(Cl)c4)CC[C@@H]23)[C@@]2(C)CCCC[C@@H]12` [5-7], the “MRGPRX4 activation, fluorescence change” value at MRGPRX4 (Conc. (Log[M]) −4) came out at 0.070; at MRGPRX4 (Conc. (Log[M]) −4.5), 0.027; on MRGPRX4 (Conc. (Log[M]) −5) it was 0.030; on MRGPRX4 (Conc. (Log[M]) −5.5) it was 0.020; at MRGPRX4 (Conc. (Log[M]) −6), 0.020; at MRGPRX4 (Conc. (Log[M]) −7), 0.017. Also, the concentration for a half-maximal effect (EC50) was over 100 µM at MRGPRX4 and under 1000 nM on human FXR (NR1H4). The “Efficacy (maximum measured induction of NanoLuc, normalized to CDCA set as 100%)” value on human FXR (NR1H4) is given as “B (300%<efficacy <=400%)”.
